Data as given in BindingDB's records for doi:10.7270/Q2QF8R8B (Pcmd, 2008).

Molecular target: T1, Cathepsin G (Homo sapiens, UniProt P08311)
T1 sequence (P08311 whole entry): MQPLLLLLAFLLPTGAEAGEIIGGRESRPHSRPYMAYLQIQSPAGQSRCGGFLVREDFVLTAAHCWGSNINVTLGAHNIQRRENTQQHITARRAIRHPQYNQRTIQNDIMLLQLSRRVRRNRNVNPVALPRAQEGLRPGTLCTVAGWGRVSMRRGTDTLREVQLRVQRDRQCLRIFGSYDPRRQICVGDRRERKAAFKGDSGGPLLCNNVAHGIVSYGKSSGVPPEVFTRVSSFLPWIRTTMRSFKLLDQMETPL
Assay: IC50 of CTSG protease blockers – biochemical, confirmation, dose response (AID 832)

SMILES | IC50
COc1ccc(C(=O)n2nc(-c3ccc(Cl)cc3)nc2N)cc1OC [SMR000074176] | 32.2 µM
COc1ccc2c(c1)CCc1c(C(=O)NCCN3CCOCC3)noc1-2 [7-methoxy-N-(2-morpholin-4-ylethyl)-4,5-dihydrobenzo[g][1,2]benzoxazole-3-carboxamide] | 5.82 µM
